Assay [1] has as its target Acetylcholinesterase (Homo sapiens, UniProt P22303). The format is functional.
For assay [2], the target named is T1, Amine oxidase [flavin-containing] A (Homo sapiens, UniProt P21397).
T1 sequence (P21397 whole entry): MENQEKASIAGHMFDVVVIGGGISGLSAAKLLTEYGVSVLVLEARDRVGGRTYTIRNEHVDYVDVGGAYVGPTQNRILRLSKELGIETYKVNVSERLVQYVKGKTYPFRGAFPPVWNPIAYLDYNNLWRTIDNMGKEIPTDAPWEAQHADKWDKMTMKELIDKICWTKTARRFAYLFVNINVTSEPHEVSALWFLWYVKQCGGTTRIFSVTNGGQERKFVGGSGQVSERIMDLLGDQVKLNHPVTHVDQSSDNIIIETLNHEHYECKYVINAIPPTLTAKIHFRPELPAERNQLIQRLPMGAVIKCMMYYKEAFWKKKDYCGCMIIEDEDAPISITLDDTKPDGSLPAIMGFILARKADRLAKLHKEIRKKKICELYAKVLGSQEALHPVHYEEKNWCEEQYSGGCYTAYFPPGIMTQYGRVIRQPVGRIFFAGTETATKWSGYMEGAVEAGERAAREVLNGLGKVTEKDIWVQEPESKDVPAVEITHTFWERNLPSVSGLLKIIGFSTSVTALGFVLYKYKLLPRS
The format is functional.

Assay [3] has as its target T2, Prostaglandin G/H synthase 1 (Homo sapiens, UniProt P23219). The class given is functional.
Assay [4] deals with T2, Prostaglandin G/H synthase 1. The class given is functional. This is another data set of the same source.
Assay [5] concerns the target 5-hydroxytryptamine receptor 2B (Homo sapiens, UniProt P41595). The format is functional, cell-based.
The target of assay [6] is Sodium-dependent noradrenaline transporter (Homo sapiens, UniProt P23975).
In assay [7] the target is T3, Adenosine receptor A3 (Homo sapiens, UniProt P0DMS8).
T3 sequence (P0DMS8 whole entry): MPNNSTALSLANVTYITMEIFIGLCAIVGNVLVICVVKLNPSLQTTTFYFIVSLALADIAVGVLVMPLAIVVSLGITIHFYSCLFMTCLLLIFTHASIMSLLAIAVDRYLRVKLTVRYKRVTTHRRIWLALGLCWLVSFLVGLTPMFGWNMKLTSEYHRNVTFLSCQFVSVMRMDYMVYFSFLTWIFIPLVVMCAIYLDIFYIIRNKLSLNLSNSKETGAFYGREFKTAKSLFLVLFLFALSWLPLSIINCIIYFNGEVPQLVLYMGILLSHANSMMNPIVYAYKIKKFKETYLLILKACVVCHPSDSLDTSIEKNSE

Assay [8] deals with Mu-type opioid receptor (Homo sapiens, UniProt P35372).
Assay [9] addresses cGMP-inhibited 3',5'-cyclic phosphodiesterase 3A (Homo sapiens, UniProt Q14432). The format is functional.
In assay [10] the target is Vascular endothelial growth factor receptor 2 (Homo sapiens, UniProt P35968). The class given is functional.
Assay [11] concerns the target D(1A) dopamine receptor (Homo sapiens, UniProt P21728).
Assay [12] has as its target Histamine H3 receptor (Homo sapiens, UniProt Q9Y5N1).
Assay [13] has as its target T4, Alpha-1A adrenergic receptor (Homo sapiens, UniProt P35348).
T4 sequence (P35348 whole entry): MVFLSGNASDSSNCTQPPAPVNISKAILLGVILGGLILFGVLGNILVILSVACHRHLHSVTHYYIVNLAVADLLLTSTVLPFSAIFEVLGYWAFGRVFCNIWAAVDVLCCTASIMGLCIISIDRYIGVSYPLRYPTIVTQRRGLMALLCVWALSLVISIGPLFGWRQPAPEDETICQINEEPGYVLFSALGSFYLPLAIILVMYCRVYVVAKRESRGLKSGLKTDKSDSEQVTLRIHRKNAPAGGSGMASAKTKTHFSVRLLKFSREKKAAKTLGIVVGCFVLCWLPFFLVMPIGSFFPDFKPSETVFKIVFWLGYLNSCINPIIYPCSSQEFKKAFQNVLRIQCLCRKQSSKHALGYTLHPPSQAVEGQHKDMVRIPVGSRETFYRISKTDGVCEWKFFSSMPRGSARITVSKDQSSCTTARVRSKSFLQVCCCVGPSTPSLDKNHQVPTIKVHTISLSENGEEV
The format is functional, cell-based.

The target in assay [14] is T5, Progesterone receptor (Homo sapiens, UniProt P06401).
T5 sequence (P06401 whole entry): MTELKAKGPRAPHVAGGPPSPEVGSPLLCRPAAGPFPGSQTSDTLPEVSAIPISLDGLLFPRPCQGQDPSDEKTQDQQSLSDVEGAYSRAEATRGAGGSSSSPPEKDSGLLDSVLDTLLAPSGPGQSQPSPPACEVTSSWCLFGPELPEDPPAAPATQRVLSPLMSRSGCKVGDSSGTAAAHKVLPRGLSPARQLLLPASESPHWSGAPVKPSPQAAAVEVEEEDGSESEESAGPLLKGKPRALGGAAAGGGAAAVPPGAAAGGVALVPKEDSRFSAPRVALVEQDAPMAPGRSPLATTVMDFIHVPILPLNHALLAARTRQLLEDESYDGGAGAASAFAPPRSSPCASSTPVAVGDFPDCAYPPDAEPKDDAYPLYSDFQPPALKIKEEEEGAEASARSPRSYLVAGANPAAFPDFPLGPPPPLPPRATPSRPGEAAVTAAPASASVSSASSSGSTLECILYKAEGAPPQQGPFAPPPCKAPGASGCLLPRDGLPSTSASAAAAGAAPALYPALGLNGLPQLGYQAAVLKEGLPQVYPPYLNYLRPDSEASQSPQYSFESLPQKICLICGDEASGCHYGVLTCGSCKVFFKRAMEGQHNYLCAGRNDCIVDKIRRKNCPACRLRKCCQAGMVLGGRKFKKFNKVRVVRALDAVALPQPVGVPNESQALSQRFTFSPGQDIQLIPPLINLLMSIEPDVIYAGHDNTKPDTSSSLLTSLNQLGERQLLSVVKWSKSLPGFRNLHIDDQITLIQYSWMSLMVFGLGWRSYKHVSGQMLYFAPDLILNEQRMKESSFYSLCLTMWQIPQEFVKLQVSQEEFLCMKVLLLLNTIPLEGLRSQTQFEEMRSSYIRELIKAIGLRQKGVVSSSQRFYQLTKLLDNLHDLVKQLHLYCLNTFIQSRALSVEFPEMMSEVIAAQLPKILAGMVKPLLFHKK

Data on nine compounds can be found in ChEMBL document CHEMBL5291721, “A preclinical secondary pharmacology resource illuminates target-adverse drug reaction associations of marketed drugs” (Nat Commun, 2023).

The structures appear in SMILES notation. Where only a bound is given, the exact number is not on record here.

A word on the AC50: it is the midpoint of the concentration-response curve, whichever way the signal moves. A low value points to activity at low concentration.
Note: assay procedure not described here.

Chain of Sodium-dependent noradrenaline transporter (P23975 whole entry): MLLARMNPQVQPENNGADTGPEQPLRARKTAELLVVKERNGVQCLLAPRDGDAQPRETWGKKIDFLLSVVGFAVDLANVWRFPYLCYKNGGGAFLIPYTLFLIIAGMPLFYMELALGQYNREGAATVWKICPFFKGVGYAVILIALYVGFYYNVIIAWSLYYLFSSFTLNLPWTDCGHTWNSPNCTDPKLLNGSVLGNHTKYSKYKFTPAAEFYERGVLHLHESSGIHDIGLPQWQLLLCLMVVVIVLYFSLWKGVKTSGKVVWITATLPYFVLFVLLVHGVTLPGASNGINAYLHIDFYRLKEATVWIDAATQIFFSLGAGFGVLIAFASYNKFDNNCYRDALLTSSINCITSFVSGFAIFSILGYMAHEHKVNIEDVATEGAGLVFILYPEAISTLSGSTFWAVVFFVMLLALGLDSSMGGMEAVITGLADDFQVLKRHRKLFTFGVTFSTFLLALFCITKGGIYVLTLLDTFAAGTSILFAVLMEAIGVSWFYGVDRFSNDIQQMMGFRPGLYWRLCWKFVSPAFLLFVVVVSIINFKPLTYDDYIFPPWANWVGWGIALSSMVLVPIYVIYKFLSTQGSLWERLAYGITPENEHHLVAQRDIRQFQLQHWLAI
Chain of Vascular endothelial growth factor receptor 2 (P35968 whole entry): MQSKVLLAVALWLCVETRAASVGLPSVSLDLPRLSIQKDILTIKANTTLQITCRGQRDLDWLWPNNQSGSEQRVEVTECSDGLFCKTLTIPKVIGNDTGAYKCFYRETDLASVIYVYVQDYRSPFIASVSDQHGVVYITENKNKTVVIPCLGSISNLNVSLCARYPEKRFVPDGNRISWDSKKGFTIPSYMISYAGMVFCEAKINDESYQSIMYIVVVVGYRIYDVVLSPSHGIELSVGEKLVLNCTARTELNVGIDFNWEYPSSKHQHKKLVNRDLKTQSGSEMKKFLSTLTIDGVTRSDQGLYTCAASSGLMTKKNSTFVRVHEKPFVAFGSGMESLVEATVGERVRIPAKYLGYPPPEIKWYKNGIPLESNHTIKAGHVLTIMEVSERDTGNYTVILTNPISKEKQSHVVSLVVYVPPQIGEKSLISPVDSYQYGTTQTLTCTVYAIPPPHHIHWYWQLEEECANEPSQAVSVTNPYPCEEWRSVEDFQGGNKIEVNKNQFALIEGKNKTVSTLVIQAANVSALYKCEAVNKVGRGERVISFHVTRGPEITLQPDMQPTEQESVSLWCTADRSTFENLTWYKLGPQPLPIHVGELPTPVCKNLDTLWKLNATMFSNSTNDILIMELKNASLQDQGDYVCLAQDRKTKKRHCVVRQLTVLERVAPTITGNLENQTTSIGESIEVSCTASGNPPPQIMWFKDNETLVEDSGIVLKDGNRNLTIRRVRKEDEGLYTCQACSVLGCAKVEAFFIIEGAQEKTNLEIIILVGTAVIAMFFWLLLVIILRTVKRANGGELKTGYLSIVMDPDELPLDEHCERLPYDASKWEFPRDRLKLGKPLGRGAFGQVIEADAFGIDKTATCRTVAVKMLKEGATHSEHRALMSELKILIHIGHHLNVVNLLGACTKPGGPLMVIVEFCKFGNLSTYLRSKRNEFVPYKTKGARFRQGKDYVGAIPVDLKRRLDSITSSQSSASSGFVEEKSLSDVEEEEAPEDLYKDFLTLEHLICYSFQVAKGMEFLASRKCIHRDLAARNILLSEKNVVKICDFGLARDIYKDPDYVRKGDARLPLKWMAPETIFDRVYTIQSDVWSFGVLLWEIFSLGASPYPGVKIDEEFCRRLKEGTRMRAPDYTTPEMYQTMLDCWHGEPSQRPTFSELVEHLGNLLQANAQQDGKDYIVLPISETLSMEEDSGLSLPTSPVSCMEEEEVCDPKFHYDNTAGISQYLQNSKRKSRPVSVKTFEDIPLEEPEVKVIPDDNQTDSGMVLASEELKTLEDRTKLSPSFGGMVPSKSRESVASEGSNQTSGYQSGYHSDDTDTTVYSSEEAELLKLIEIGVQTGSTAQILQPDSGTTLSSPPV
Chain of Mu-type opioid receptor (P35372 whole entry): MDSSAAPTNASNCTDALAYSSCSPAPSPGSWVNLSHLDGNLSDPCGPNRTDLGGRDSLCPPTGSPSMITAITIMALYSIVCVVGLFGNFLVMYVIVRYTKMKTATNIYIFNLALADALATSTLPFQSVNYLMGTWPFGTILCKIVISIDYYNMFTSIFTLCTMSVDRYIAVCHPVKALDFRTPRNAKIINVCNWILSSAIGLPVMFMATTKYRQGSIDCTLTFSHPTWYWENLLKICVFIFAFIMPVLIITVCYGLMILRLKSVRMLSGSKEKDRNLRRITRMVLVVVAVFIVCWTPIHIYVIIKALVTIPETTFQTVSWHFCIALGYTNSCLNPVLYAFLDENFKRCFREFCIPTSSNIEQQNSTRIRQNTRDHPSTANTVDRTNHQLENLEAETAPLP
Chain of D(1A) dopamine receptor (P21728 whole entry): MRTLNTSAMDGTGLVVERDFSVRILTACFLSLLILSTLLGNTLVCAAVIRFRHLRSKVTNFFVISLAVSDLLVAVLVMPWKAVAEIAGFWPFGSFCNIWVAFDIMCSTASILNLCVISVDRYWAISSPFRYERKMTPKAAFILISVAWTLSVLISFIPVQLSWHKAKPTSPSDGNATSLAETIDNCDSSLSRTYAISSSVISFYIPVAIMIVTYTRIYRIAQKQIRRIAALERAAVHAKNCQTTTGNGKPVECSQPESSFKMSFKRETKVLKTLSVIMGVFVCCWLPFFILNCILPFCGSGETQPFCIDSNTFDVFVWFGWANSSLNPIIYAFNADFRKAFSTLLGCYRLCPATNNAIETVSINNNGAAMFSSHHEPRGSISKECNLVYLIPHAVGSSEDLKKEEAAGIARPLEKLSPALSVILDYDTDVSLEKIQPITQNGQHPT
Chain of Histamine H3 receptor (Q9Y5N1 whole entry): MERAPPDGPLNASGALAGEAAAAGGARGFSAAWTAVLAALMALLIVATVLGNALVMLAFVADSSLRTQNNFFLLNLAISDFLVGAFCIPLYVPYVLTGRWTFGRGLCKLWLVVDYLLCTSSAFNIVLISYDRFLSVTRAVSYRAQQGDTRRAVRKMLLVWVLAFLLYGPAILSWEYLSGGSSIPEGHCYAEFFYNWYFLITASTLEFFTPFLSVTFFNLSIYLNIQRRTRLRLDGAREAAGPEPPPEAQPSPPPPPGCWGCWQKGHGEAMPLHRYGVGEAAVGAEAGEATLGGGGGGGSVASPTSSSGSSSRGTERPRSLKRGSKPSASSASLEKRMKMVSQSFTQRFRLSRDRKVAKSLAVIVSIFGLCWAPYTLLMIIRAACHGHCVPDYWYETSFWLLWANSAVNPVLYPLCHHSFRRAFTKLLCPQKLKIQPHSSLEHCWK
T2 sequence (P23219 whole entry): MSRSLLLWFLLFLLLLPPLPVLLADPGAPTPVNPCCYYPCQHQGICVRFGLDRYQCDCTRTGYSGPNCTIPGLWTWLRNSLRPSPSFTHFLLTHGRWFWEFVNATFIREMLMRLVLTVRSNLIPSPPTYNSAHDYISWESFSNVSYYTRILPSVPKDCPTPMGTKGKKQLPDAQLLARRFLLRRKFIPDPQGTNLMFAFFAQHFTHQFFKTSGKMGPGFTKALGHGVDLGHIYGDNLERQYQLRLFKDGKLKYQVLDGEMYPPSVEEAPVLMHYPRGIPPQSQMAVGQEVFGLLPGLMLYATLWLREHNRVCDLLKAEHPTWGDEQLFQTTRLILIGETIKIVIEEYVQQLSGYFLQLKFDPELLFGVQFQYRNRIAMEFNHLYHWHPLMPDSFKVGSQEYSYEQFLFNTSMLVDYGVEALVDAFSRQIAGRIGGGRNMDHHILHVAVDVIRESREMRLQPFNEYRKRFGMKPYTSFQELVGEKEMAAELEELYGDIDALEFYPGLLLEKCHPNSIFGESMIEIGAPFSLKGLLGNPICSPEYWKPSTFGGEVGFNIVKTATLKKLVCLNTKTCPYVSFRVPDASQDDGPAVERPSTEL
Chain of 5-hydroxytryptamine receptor 2B (P41595 whole entry): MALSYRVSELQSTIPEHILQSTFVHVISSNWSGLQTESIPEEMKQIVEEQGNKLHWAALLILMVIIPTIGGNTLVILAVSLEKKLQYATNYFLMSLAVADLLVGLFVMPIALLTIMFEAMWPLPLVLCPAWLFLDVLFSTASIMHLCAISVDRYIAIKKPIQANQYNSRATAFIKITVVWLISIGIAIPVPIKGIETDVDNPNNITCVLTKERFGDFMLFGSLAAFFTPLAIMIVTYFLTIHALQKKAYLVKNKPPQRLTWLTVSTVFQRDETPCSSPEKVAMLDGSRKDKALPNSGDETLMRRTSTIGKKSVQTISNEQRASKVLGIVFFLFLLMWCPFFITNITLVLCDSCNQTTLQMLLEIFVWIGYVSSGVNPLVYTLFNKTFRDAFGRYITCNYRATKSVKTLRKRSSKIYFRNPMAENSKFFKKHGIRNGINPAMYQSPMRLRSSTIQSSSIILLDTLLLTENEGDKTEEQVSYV
Chain of Acetylcholinesterase (P22303 whole entry): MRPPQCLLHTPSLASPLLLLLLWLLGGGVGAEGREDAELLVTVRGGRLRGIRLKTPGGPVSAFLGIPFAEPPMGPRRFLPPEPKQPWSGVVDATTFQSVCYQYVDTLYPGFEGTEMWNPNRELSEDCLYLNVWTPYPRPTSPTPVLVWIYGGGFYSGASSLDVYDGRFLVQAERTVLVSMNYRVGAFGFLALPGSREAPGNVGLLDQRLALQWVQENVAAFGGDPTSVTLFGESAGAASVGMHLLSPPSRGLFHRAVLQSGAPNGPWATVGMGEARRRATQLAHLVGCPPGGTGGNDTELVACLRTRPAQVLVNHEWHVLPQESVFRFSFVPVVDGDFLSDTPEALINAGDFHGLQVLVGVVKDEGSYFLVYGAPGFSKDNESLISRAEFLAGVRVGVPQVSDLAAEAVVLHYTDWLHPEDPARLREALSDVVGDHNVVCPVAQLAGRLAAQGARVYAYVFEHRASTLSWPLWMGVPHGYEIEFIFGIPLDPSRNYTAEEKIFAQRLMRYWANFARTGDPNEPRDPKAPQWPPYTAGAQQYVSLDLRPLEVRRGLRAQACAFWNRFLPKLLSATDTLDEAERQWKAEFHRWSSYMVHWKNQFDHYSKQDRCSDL

For the compound `CCCC1O[C@@H]2C[C@H]3[C@@H]4CCC5=CC(=O)C=C[C@]5(C)[C@H]4[C@@H](O)C[C@]3(C)[C@]2(C(=O)CO)O1` (stereo partly specified) [BUDESONIDE], the AC50 in assay [1], in assay [2], in [3], in assay [4], in assay [5] and in [6] was over 30 µM each time. For the same compound, the half-maximal activity concentration (AC50) in assay [7], in [8], in [9], in assay [10], in assay [11] and in [12] was over 30 µM throughout. This compound came in with an AC50 in assay [13] of over 30 µM.

Regarding `CCOc1ccc(Cc2cc([C@@H]3O[C@H](CO)[C@@H](O)[C@H](O)[C@H]3O)ccc2Cl)cc1` [DAPAGLIFLOZIN], the AC50 in assay [1], in assay [2], in assay [3], in assay [4], in assay [5] and in assay [6] was over 30 µM throughout. Moreover, the half-maximal activity concentration (AC50) in [7], in [8], in [14], in [9], in assay [10] and in assay [11] was over 30 µM each time. Moreover, the half-maximal activity concentration (AC50) in assay [12] and in assay [13] was over 30 µM throughout.

Turning to `CC[C@H]1CN2CCc3cc(OC)c(OC)cc3[C@@H]2C[C@@H]1C[C@H]1NCCc2cc(OC)c(OC)cc21` [EMETINE], the AC50 in [1], in [2], in assay [3], in assay [4], in assay [5] and in assay [6] was over 30 µM each time. For the same compound, the AC50 was 5.99 µM in [8]; over 30 µM in assay [14]; over 30 µM in assay [9]; 15.7 µM in assay [11]; over 30 µM in [12].

For the compound `O=c1[nH]c(=O)n([C@H]2C[C@H](O)[C@@H](CO)O2)cc1F` [FLOXURIDINE], the AC50 in assay [1], in assay [2], in [3], in assay [4], in [5] and in [6] was over 30 µM throughout. For the same compound, the AC50 in assay [7], in assay [8], in assay [14], in assay [9], in assay [10] and in [11] was over 30 µM throughout. Also, the AC50 in assay [12] and in assay [13] was over 30 µM throughout.

For the compound `Clc1cc(Cl)c(OCC#CI)cc1Cl` [HALOPROGIN], the AC50 is over 30 µM in [1]; over 30 µM in assay [2]; over 30 µM in [3]; over 30 µM in [4]; over 30 µM in assay [5]; 5.12 µM in assay [6]. For the same compound, the AC50 in [7] is 0.946 µM; in [8], 12.3 µM; in assay [14] it was over 30 µM; in [9], over 30 µM; in assay [10], over 30 µM; in assay [12], over 30 µM. In [13], this compound gave an AC50 of over 30 µM.

Take `O=c1[nH]c(=O)n([C@H]2C[C@H](O)[C@@H](CO)O2)cc1I` [IDOXURIDINE]: the concentration at half-maximal activity (AC50) in assay [1], in [2], in assay [3], in [4], in assay [5] and in assay [6] was over 30 µM in each case. For the same compound, the AC50 in assay [7], in assay [8], in assay [14], in assay [9], in [10] and in [11] was over 30 µM throughout. In addition, the AC50 in assay [12] and in assay [13] was over 30 µM each time.

Regarding `COc1cc2nc(N3CCN(C(=O)c4ccco4)CC3)nc(N)c2cc1OC` [PRAZOSIN], the concentration at half-maximal activity (AC50) in assay [1] was 23.7 µM; in assay [2], over 30 µM; in [3], over 30 µM; in assay [4], over 30 µM; in [5] it was over 30 µM; in assay [6] it was over 30 µM. In addition, the AC50 in assay [8] was 17.5 µM; in assay [14] it was over 30 µM; in assay [9], over 30 µM; in [11] it was 8.64 µM; in [12], over 30 µM.

On to `Nc1nc2nc[nH]c2c(=S)[nH]1` [THIOGUANINE], for which the concentration at half-maximal activity (AC50) is over 30 µM in assay [1]; over 30 µM in assay [2]; 0.81 µM in [3]; 1.32 µM in [4]; over 30 µM in [5]; over 30 µM in assay [6]. The AC50 in assay [7], in assay [8], in [14], in [9], in assay [11] and in assay [12] was over 30 µM in each case. The compound also yielded a half-maximal activity concentration (AC50) in assay [13] of over 30 µM.

Regarding `CC[C@]1(O)C[C@H]2CN(CCc3c([nH]c4ccccc34)[C@@](C(=O)OC)(c3cc4c(cc3OC)N(C=O)[C@H]3[C@@](O)(C(=O)OC)[C@H](OC(C)=O)[C@]5(CC)C=CCN6CC[C@]43[C@@H]65)C2)C1` [VINCRISTINE], the AC50 in assay [1] was over 30 µM; in assay [2], over 30 µM; in assay [3], 11.2 µM; in [4], 5.73 µM; in assay [5] it was over 30 µM; in [6], over 30 µM. In addition, the AC50 in [7], in assay [8], in assay [14], in [9], in assay [11] and in assay [12] was over 30 µM each time. This compound also gave an AC50 in assay [13] of over 30 µM.
